Patent US9012628B2, “Crystalline form of ertapenem sodium and preparation method therefor” (CSPC Zhongqi Pharmaceutical Technology (Shijiazhuang) Co. …, priority 2010, dated 2015)

Assay: Comparative tests for stability of the crystalline form E and other crystalline forms (storage, total impurity and content)
Type: physicochemical
Conditions: for Stability compared between solid forms (conclusion from Table 5): stored 1 year at 6° C. and −20° C.
Procedure: Comparative tests for stability of the crystalline form E and other crystalline forms. Crystalline form A and crystalline form B of ertapenem sodium were prepared according to the methods disclosed in WO03026572, crystalline form C of ertapenem sodium was prepared according to the method disclosed in WO03027067, crystalline form D of ertapenem sodium was prepared according to the method disclosed in WO2009150630, and amorphous product of ertapenem sodium was prepared according the method disclosed in CN1752090A. The above-mentioned crystalline forms A, B, C, D, the amorphous solid of ertapenem sodium, and the crystalline form E prepared according to Example 1 were stored for 1 year under refrigerating at 6° C. and freezing at −20° C., and were sampled at month 1, month 3, month 6, month 9, and month 12, respectively, and the total impurity and content of the reserved samples were tested, and the specific data are shown in Table 5: […]

| Structure (SMILES) | Content (Freezing −20° C., month 0) | Total impurity (Freezing −20° C., month 0) | Content (Freezing −20° C., month 3) | Total impurity (Freezing −20° C., month 3) | Content (Freezing −20° C., month 6) | Total impurity (Freezing −20° C., month 6) | Content (Freezing −20° C., month 9) | Total impurity (Freezing −20° C., month 9) | Content (Freezing −20° C., month 12) | Total impurity (Freezing −20° C., month 12) | Content (Refrigerating 6° C., month 0) | Total impurity (Refrigerating 6° C., month 0) | Content (Refrigerating 6° C., month 3) | Total impurity (Refrigerating 6° C., month 3) | Content (Refrigerating 6° C., month 6) | Total impurity (Refrigerating 6° C., month 6) | Content (Refrigerating 6° C., month 9) | Total impurity (Refrigerating 6° C., month 9) | Content (Refrigerating 6° C., month 12) | Total impurity (Refrigerating 6° C., month 12) | other results |
| --- | --- | --- | --- | --- | --- | --- | --- | --- | --- | --- | --- | --- | --- | --- | --- | --- | --- | --- | --- | --- | --- |
| C[C@@H](O)[C@H]1C(=O)N2C(C(=O)[O-])=C(S[C@@H]3CN[C@H](C(=O)Nc4cccc(C(=O)O)c4)C3)[C@H](C)[C@H]12.[Na+] (relative stereo) [Crystalline form E, (1R,5S,6S,8R,2S*,4S*)-2-[2-[(3-carboxyphenyl)carbamoyl]-pyrrolidinyl-4-thio]-6-(1-hydroxyethyl)-1-methylcarbapenem-3-carboxylic acid monosodium salt] | 99.1% | 0.8% | 99.0% | 0.8% | 99.1% | 0.8% | 99.0% | 0.8% | 98.9% | 0.8% | 99.1% | 0.8% | 98.5% | 1.3% | 98.1% | 1.6% | 97.5% | 2.1% | 96.8% | 3.2% | Stability compared between solid forms (conclusion from Table 5): comparable stability, which is more stable than the amorphous product and the crystalline form D |
| C[C@@H](O)[C@H]1C(=O)N2C(C(=O)[O-])=C(S[C@@H]3CN[C@H](C(=O)Nc4cccc(C(=O)O)c4)C3)[C@H](C)[C@H]12.[Na+] [Amorphous, ertapenem sodium] | 98.5% | 1.2% | 98.4% | 1.2% | 98.5% | 1.3% | 98.2% | 1.5% | 98.1% | 1.7% | 98.5% | 1.2% | 97.9% | 2.1% | 94.5% | 5.3% | 92.3% | 7.1% | 90.1% | 9.3% | – |
| C[C@@H](O)[C@H]1C(=O)N2C(C(=O)[O-])=C(S[C@@H]3CN[C@H](C(=O)Nc4cccc(C(=O)O)c4)C3)[C@H](C)[C@H]12.[Na+] [Crystalline form A, ertapenem sodium] | 99.2% | 0.7% | 99.2% | 0.7% | 99.1% | 0.7% | 99.2% | 0.7% | 99.1% | 0.7% | 99.2% | 0.7% | 98.6% | 1.2% | 98.1% | 1.5% | 97.6% | 2.0% | 96.9% | 3.0% | Stability compared between solid forms (conclusion from Table 5): comparable stability, which is more stable than the amorphous product and the crystalline form D |
| C[C@@H](O)[C@H]1C(=O)N2C(C(=O)[O-])=C(S[C@@H]3CN[C@H](C(=O)Nc4cccc(C(=O)O)c4)C3)[C@H](C)[C@H]12.[Na+] [Crystalline form B, ertapenem sodium] | 99.1% | 0.8% | 99.1% | 0.8% | 99.0% | 0.9% | 99.0% | 0.8% | 98.9% | 0.9% | 99.1% | 0.8% | 98.3% | 1.4% | 98.0% | 1.7% | 97.5% | 2.1% | 96.6% | 3.3% | Stability compared between solid forms (conclusion from Table 5): comparable stability, which is more stable than the amorphous product and the crystalline form D |
| C[C@@H](O)[C@H]1C(=O)N2C(C(=O)[O-])=C(S[C@@H]3CN[C@H](C(=O)Nc4cccc(C(=O)O)c4)C3)[C@H](C)[C@H]12.[Na+] [Crystalline form C, ertapenem sodium] | 99.2% | 0.8% | 99.2% | 0.8% | 99.1% | 0.8% | 99.2% | 0.8% | 99.2% | 0.8% | 99.2% | 0.8% | 98.7% | 1.1% | 98.2% | 1.4% | 97.8% | 1.9% | 96.9% | 3.0% | Stability compared between solid forms (conclusion from Table 5): comparable stability, which is more stable than the amorphous product and the crystalline form D |
| C[C@@H](O)[C@H]1C(=O)N2C(C(=O)[O-])=C(S[C@@H]3CN[C@H](C(=O)Nc4cccc(C(=O)O)c4)C3)[C@H](C)[C@H]12.[Na+] [Crystalline form D, ertapenem sodium] | 98.8% | 1.0% | 98.7% | 1.1% | 98.7% | 1.1% | 98.6% | 1.2% | 98.5% | 1.2% | 98.8% | 1.0% | 98.0% | 1.9% | 96.8% | 3.1% | 94.7% | 4.6% | 93.2% | 6.5% | – |
